Test results as given in article PMC10650832, “Natural Phosphodiesterase-4 Inhibitors with Potential Anti-Inflammatory Activities from Millettia dielsiana” (Molecules, 2023).

What was measured:
[1] = test system: NO production in RAW264.7 cells induced by LPS; design: method as in PMID 31470215; conditions: read-out: IC50 of inhibition of NO production; cited from earlier work
[2] = test system: NO production; design: method as in PMID 22902267; conditions: read-out: IC50 of inhibition of NO production; cited from earlier work
[3] = molecular target: T1, Recombinant PDE4D (Homo sapiens, UniProt Q08499); test: In vitro PDE4D enzymatic assay (cAMP dynamic 2 kit); type: biochemical; conditions: average of three determinations ± SEM
T1 construct: purchased Sigma Aldrich Co Ltd
Description: (§1) Recombinant PDE4B/D was from Sigma Aldrich Co Ltd. A PDE4B/D inhibitors assay was performed using a cAMP dynamic 2 kit. Serial dilutions of isolated compounds with DMSO (100-fold of final concentration) were prepared. Compound solutions were diluted 20-fold with cAMP assay buffer (50 mM Tris, 6 mM MgCl2, pH 7.5). Enzyme solution ([…] of 30 ng/mL or cAMP assay buffer for the control) and […] of isolated compounds (5-fold concentration of final concentration) were added to each well of the 96-well micro assay plate and pre-incubated at room temperature for 10 min. The enzymatic reactions were started by adding […] of cAMP solution (150 nM in cAMP assay buffer) or cAMP assay buffer and incubated at 37 °C for 30 min. The enzymatic reaction was terminated by placing the assay plate on ice. The concentration of cAMP was quantified by measurement of fluorescence intensity using Spectrophotometer Model-SP-2558 (Acton Research, Acton, MA, USA).

[4] = molecular target: T2, Recombinant PDE4B (Homo sapiens, UniProt Q07343); test: In vitro PDE4B enzymatic assay (cAMP dynamic 2 kit); type: biochemical; conditions: average of three determinations ± SEM
T2 construct: purchased Sigma Aldrich Co Ltd
Description: as §1

[5] = test system: NO production on RAW264.7 macrophages; test: Inhibition of NO production in LPS-stimulated RAW264.7 cells (Griess); type: cell-based, murine; conditions: highest concentration 50 µM
Description: Cell RAW264.7 (ATCC, Manassas, VA, USA) was cultured for 48 h in DMEM (Dulbecco's Modified Eagle Medium) medium at 37 °C, 5% CO2, and 10% for fetal bovine serum (FBS). Then, the cell fluid was transferred to 96 wells with a density of 2.5 × 10^5 cells/well. Cells were stimulated with 2 μL lipopolysaccharide (LPS 0.1 mg/mL) for 24 h and supplemented with different concentrations of drugs/reagents. Cardamonin is used as a control (+) and DMSO as a control (-). The suspension of the cell was incubated with Griess reagent, NaNO2 at different concentrations to build the calibration curve. Measure the reaction response at λ = 570 nm. The inhibition rate of NO (%) production is determined by the formula: %UC = ([XTB]sample - [[…]) × 100 In which [XTB] is the average NO concentration calculated based on the standard NaNO2. […] Formazan crystalline metabolites are dissolved in dimethyl sulfoxide (DMSO, Sigma-Aldrich, Saint Louis, MO, USA) and measured optical density at λ = 540/720 nm on Infinite F50 device (Tecan, Männedorf, Switzerland).

T1 sequence (Q08499 whole entry, species assumed): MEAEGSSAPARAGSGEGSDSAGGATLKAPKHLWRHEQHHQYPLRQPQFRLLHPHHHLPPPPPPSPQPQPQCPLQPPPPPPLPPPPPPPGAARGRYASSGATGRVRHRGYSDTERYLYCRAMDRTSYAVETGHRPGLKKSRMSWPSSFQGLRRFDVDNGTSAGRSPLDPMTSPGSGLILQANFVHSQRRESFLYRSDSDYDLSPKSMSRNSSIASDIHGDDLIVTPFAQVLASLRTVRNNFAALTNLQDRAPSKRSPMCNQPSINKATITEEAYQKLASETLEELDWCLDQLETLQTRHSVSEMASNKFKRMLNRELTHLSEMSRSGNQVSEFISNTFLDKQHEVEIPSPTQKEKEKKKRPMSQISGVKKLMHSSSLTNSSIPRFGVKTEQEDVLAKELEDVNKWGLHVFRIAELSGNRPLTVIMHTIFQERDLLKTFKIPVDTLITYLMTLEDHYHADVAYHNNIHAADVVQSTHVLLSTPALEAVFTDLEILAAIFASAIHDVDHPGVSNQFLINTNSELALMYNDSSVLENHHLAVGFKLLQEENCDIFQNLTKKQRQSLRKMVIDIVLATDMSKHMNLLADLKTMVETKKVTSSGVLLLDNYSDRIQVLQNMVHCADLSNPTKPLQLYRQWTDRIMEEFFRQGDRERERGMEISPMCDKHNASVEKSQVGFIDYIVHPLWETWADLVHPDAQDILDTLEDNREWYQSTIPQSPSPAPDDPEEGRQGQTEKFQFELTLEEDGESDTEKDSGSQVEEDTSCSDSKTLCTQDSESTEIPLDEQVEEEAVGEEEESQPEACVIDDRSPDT
T2 sequence (Q07343 whole entry, species assumed): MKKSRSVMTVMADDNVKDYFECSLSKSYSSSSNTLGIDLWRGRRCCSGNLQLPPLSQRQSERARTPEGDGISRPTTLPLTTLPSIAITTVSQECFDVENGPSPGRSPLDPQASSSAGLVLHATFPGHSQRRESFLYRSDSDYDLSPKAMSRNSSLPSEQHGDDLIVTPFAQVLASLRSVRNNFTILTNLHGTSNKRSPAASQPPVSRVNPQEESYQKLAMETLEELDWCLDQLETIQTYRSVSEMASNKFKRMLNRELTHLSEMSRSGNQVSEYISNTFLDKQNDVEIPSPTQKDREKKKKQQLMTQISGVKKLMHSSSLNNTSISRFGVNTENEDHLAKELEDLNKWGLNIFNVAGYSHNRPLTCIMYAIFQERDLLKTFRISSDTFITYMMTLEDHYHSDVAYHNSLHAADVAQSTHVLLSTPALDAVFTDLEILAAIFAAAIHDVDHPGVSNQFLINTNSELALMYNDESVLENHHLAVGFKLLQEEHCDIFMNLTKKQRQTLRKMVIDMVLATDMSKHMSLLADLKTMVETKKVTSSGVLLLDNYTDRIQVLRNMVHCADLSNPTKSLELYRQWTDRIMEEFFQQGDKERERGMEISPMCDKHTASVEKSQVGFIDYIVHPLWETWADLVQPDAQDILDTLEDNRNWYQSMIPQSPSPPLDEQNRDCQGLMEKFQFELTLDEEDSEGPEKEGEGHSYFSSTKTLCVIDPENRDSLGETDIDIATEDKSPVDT

Compound: Oc1ccc([C@H]2CCc3ccc(O)cc3O2)cc1 [D10, Tupichinol C]
- IC50 [1]: 38.4 µM

Compound: COc1cc(OC)c(-c2coc3c4c(c(OC)cc3c2=O)OC(C)(C)C=C4)cc1OC [D30, Millesianin C]
- IC50 [2]: 1.37 µM

Compound: COc1ccc([C@H]2COc3cc(O)ccc3C2)c(O)c1 [D9, (3S)-Vestitol]
- IC50 [1]: 16 µM

Compound: C[C@H]1[C@H](C)CC[C@]2(C(=O)O)CC[C@]3(C)C(=CC[C@@H]4[C@@]5(C)CC[C@H](OC(=O)/C=C/c6ccc(O)cc6)C(C)(C)[C@@H]5CC[C@]43C)[C@H]12 (relative stereo) [D15, trans-3-O-p-hydroxycinnamoyl ursolic acid]
- IC50 of inhibition of PDE4D [3]: did not show activity
- IC50 of inhibition of PDE4B [4]: did not show activity

Compound: 5,7,4′-trihydroxyisoflavone 7-O-β-D-apiofuranosyl-(1→6)-β-D-glucopyranoside [D50]
- IC50 [5]: 5.4 ± 0.9 µM
- IC50 ([3]; read-out: IC50 of inhibition of PDE4D): 11.7 ± 1.3 µM
- IC50 ([4]; read-out: IC50 of inhibition of PDE4B): 6.56 ± 0.7 µM

Compound: O=C(/C=C/c1ccc(O)cc1)c1ccc(O)cc1O [D4, Isoliquiritigenin]
- IC50 [1]: 31.2 µM
